According to US8703805B2 (Exelixis Patent Company LLC, priority 2005, dated 2014):

Test system: LXRα and/or LXRβ
Test: LXR/LXRE co-transfection assay (luciferase reporter, CV-1 cells)
Format: cell-based, human
Conditions: IC50 or EC50 for LXR (LXRα and/or LXRβ, not distinguished), tested as described in Example 109, CV-1 cells
Description: To measure the ability of compounds to activate or inhibit the transcriptional activity of LXR in a cell based assay, the co-transfection assay was used. It has been shown that LXR functions as a heterodimer with RXR. For the co-transfection assay; expression plasmids for LXR and RXR are introduced via transient transfection into mammalian cells along with a luciferase reporter plasmid that contains one copy of a DNA sequence that is bound by LXR-RXR heterodimers (LXRE; Willy, P. ad. 1995). Treatment of transfected cells with an LXR agonist increases the transcriptional activity of LXR, which is measured by an increase in luciferase activity.
CV-1 African Green Monkey Kidney Cells Co-transfection expression plasmids, comprising full-length LXRα (pCMX-h LXRα, LXRβ (pCMX-hLXRβ), or RXRα (pCMX-RXR), reporter plasmid (LXREx1-Tk-Luciferase), and control (pCMX-Galactosidase expression vector) (Willey et al. Genes & Development 91033-1045 (1995)). Transfection reagent such as FuGENE6 (Roche). 1× Cell lysis buffer (1% Triton X 100 (IT Baker X200-07), 10% Glycerol (JT Baker M778-07), 5 mM Ditriotreitol (Quantum Bioprobe DTT03; add fresh before lysing), 1 mM EGTA (Ethylene Glycol-bis(B-Amino ethyl ether)-N,N,N′,N′-Tetracetic Acid) (Sigma E-4378), 25 mM Tricine (ICN 807420) pH 7.8) 1× Luciferase assay buffer (pH at 7.8) (0.73 mM ATP, 22.3 mM Tricine, 0.11 mM EDTA, 33.3 mM DTT) 1× Luciferrin/CoA (11 mM Luciferin, 3.05 mM Coenzyme A, 10 mM HEPES) Preparation of Screening Reagents
CV-1 cells were prepared 24 hours prior to the experiment by plating them into T-175 flasks or 500 cm^2 dishes in order to achieve 70-80% confluency on the day of the transfection. The number of cells to be transfected was determined by the number of plates to be screened. each 384 well plate requires 1.92×10^6 cells or 5000 cells per well. DNA Transfection Reagent was prepared by mixing the required plasmid DNAs with a cationic lipid transfection reagent FuGENE6 (Roche) by following the instructions provided with the reagents. Optimal DNA amounts were determined empirically per cell line and size of vessel to be transfected. 10-12 mL of media was added to the DNA Transfection Reagent and this mixture was added to the cells after aspirating media from the T175 cm^2 flask. Cells were then incubated at least 5 hours at 37° C. to prepare screening cells.
Luciferase assay reagent was prepared by combining before use (per 10 mL): […], 0.54 mL of 1× Luciferrin/CoA; 0.54 mL of 0.2 M Magnesium sulfate
Assay plates were prepared by dispensing 5 μL of compound per well of a 384 well plate to achieve final compound concentration of 10 μM and no more than 1% DMSO. Media was removed from the screening cells, the cells trypsinized, harvested cells by centrifugation, counted, and plated at a density of approximately 5000 cells per well in the 384 well assay plate prepared above in a volume of about 45 μL. Assay plates containing both compounds and screening cells (50 μL in total volume) were incubated for 20 hours at 37° C.
After incubation with compounds, media was removed from the cells and lysis buffer (30 μL/well) added. After 30 minutes at ambient temperature, luciferase assay buffer (30 μL/well) was added and the assay plates read on a luminometer (PE Biosystems Northstar reader with on-board injectors, or equivalent). Plates were read immediately after addition of luciferase assay buffer.
The LXR/LXRE co-transfection assay can be used to establish the EC50/IC50 values for potency and percent activity or inhibition for efficacy. Efficacy defines the activity of a compound relative to a high control ((N-(3-((4-fluorophenyl)-(naphthalene-2-sulfonyl)amino)propyl)-2,2-dimethylpropionamide)) or a low control (DMSO/vehicle). The dose response curves are generated from an 8 point curve with concentrations differing by ½ LOG units. each point represents the average of 4 wells of data from a 384 well plate. […]

CC(C)(O)c1cc(-c2ccc(-c3cccc(S(C)(=O)=O)c3)s2)n(-c2c(Cl)cncc2Cl)n1 [Example 126, 2-(1-(3,5-dichloropyridin-4-yl)-5-(5-(3-(methylsulfonyl)phenyl)thiophen-2-yl)-1H-pyrazol-3-yl)propan-2-ol]
EC50: < 1000 nM

CC(C)(O)c1nn(-c2c(Cl)cncc2Cl)c(-c2ccc(-c3cccc(S(C)(=O)=O)c3)s2)c1Cl [Example 127, 2-(4-chloro-1-(3,5-dichloropyridin-4-yl)-5-(5-(3-(methylsulfonyl)phenyl)thiophen-2-yl)-1H-pyrazol-3-yl)propan-2-ol]
EC50: < 1000 nM

CC(C)(O)c1nn(-c2ccccc2Cl)c(-c2ccc(-c3cccc(S(C)(=O)=O)c3)cn2)c1Cl [Example 128, 2-(4-chloro-1-(2-chlorophenyl)-5-(5-(3-(methylsulfonyl)phenyl)pyridin-2-yl)-1H-pyrazol-3-yl)propan-2-ol]
EC50: 1000 to 10000 nM

CC(C)(O)c1cc(-c2c(F)cccc2Cl)n(-c2ccc(-c3cccc(S(C)(=O)=O)c3)cc2Cl)n1 [Example 130, 2-(1-(3-chloro-3′-(methylsulfonyl)biphenyl-4-yl)-5-(2-chloro-6-fluorophenyl)-1H-pyrazol-3-yl)propan-2-ol]
EC50: < 1000 nM

CC(C)(O)c1cc(-c2cccc(F)c2F)n(-c2ccc(-c3cccc(S(C)(=O)=O)c3)cc2Cl)n1 [Example 131, 2-(1-(3-chloro-3′-(methylsulfonyl)biphenyl-4-yl)-5-(2,3-difluorophenyl)-1H-pyrazol-3-yl)propan-2-ol]
EC50: < 1000 nM

CC(C)(O)c1nn(-c2ccccc2Cl)c(-c2ccc(-c3cccc(S(C)(=O)=O)c3)nc2)c1Cl [Example 132, 2-(4-chloro-1-(2-chlorophenyl)-5-(6-(3-(methylsulfonyl)phenyl)pyridin-3-yl)-1H-pyrazol-3-yl)propan-2-ol]
EC50: 1000 to 10000 nM

CC(C)(O)c1cc(-c2ccc(-c3cccc(S(C)(=O)=O)c3)cc2)n(-c2c(Cl)cccc2Cl)n1 [Example 133, 2-(1-(2,6-dichlorophenyl)-5-(3′-(methylsulfonyl)biphenyl-4-yl)-1H-pyrazol-3-yl)propan-2-ol]
EC50: < 1000 nM

COC(C)(C)c1cc(-c2ccc(-c3cccc(S(C)(=O)=O)c3)s2)n(-c2ccccc2Cl)n1 [Example 134, 1-(2-chlorophenyl)-3-(2-methoxypropan-2-yl)-5-(5-(3-(methylsulfonyl)phenyl)thiophen-2-yl)-1H-pyrazole]
EC50: < 1000 nM

CC(C)(O)c1cc(-c2cccc(Cl)c2Cl)n(-c2ccc(-c3cccc(S(C)(=O)=O)c3)cc2Cl)n1 [Example 135, 2-(1-(3-chloro-3′-(methylsulfonyl)biphenyl-4-yl)-5-(2,3-dichlorophenyl)-1H-pyrazol-3-yl)propan-2-ol]
EC50: < 1000 nM

Cc1cc(-c2cccc(S(C)(=O)=O)c2)ccc1-n1nc(C(C)(C)O)cc1-c1cccc(Cl)c1Cl [Example 136, 2-(5-(2,3-dichlorophenyl)-1-(3-methyl-3′-(methylsulfonyl)biphenyl-4-yl)1H-pyrazol-3-yl)propan-2-ol]
EC50: < 1000 nM

Cc1cc(-c2cccc(S(C)(=O)=O)c2)sc1-c1cc(C(C)(C)O)nn1-c1c(Cl)cccc1Cl [Example 137, 2-(1-(2,6-dichlorophenyl)-5-(3-methyl-5-(3-(methylsulfonyl)phenyl)thiophen-2-yl)-1H-pyrazol-3-yl)propan-2-ol]
EC50: < 1000 nM

CC(C)(O)c1nn(-c2c(Cl)cccc2Cl)c(-c2ccc(-c3cccc(S(C)(=O)=O)c3)cc2)c1Cl [Example 138, 2-(4-chloro-1-(2,6-dichlorophenyl)-5-(3′-(methylsulfonyl)biphenyl-4-yl)-1H-pyrazol-3-yl)propan-2-ol]
EC50: < 1000 nM

Cc1cc(-c2cccc(S(C)(=O)=O)c2)ccc1-n1nc(C(C)(C)O)cc1-c1ccccc1C(F)(F)F [Example 139, 2-(1-(3-methyl-3′-(methylsulfonyl)biphenyl-4-yl)-5-(2-(trifluoromethyl)phenyl)-1H-pyrazol-3-yl)propan-2-ol]
EC50: < 1000 nM

CC(C)(O)c1cc(-c2ccccc2C(F)(F)F)n(-c2ccc(-c3cccc(S(C)(=O)=O)c3)cc2Cl)n1 [Example 140, 2-(1-(3-chloro-3′-(methylsulfonyl)biphenyl-4-yl)-5-(2-(trifluoromethyl)phenyl)-1H-pyrazol-3-yl)propan-2-ol]
EC50: < 1000 nM

CC(C)(O)c1cc(-c2ccc(-c3cccc(S(C)(=O)=O)c3)cc2Cl)n(-c2c(Cl)cccc2Cl)n1 [Example 142, 2-(5-(3-chloro-3′-(methylsulfonyl)biphenyl-4-yl)-1-(2,6-dichlorophenyl)-1H-pyrazol-3-yl)propan-2-ol]
EC50: < 1000 nM

CS(=O)(=O)c1cccc(-c2ccc(-c3cc(C(=O)N4CCCC4)nn3-c3c(Cl)cccc3Cl)c(Cl)c2)c1 [Example 143, (5-(3-chloro-3′-(methylsulfonyl)biphenyl-4-yl)-1-(2,6-dichlorophenyl)-1H-pyrazol-3-yl)(pyrrolidin-1-yl)methanone]
EC50: < 1000 nM

CC(C)(O)c1nn(-c2c(Cl)cccc2Cl)c(-c2ccc(-c3cccc(S(C)(=O)=O)c3)cc2Cl)c1Cl [Example 144, 2-(4-chloro-5-(3-chloro-3′-(methylsulfonyl)biphenyl-4-yl)-1-(2,6-dichlorophenyl)-1H-pyrazol-3-yl)propan-2-ol]
EC50: < 1000 nM

Cc1cc(-c2cccc(S(C)(=O)=O)c2)cnc1-n1nc(C(C)(C)O)c(Cl)c1-c1ccccc1Cl [Example 145, 2-(4-chloro-5-(2-chlorophenyl)-1-(3-methyl-5-(3-(methylsulfonyl)phenyl)pyridin-2-yl)-1H-pyrazol-3-yl)propan-2-ol]
EC50: < 1000 nM

Cc1cc(-c2cccc(S(C)(=O)=O)c2)cc(C)c1-n1nc(C(C)(C)O)cc1-c1ccccc1Cl [Example 146, 2-(5-(2-chlorophenyl)-1-(3,5-dimethyl-3′-(methylsulfonyl)biphenyl-4-yl)-1H-pyrazol-3-yl)propan-2-ol]
EC50: < 1000 nM

Cc1cc(-c2cccc(S(C)(=O)=O)c2)ccc1-c1cc(C(C)(C)O)nn1-c1c(Cl)cccc1Cl [Example 147, 2-(1-(2,6-dichlorophenyl)-5-(3-methyl-3′-(methylsulfonyl)biphenyl-4-yl)-1H-pyrazol-3-yl)propan-2-ol]
EC50: < 1000 nM

Cc1cc(-c2cccc(S(C)(=O)=O)c2)ccc1-c1cc(C(=O)N2CCCC2)nn1-c1c(Cl)cccc1Cl [Example 148, (1-(2,6-dichlorophenyl)-5-(3-methyl-3′-(methylsulfonyl)biphenyl-4-yl)-1H-pyrazol-3-yl)(pyrrolidin-1-yl)methanone]
EC50: < 1000 nM

Cc1cc(-c2cccc(S(C)(=O)=O)c2)ccc1-n1nc(C(C)(C)O)c(Cl)c1-c1c(F)cccc1Cl [Example 149, 2-(4-chloro-5-(2-chloro-6-fluorophenyl)-1-(3-methyl-3′-(methylsulfonyl)biphenyl-4-yl)-1H-pyrazol-3-yl)propan-2-ol]
EC50: < 1000 nM

CS(=O)(=O)c1cccc(-c2ccc(-c3cc(CN4CCCC4)nn3-c3ccccc3Cl)s2)c1 [Example 456, 1-(2-chlorophenyl)-5-{5-[3-(methylsulfonyl)phenyl]-2-thienyl}-3-(pyrrolidin-1-ylmethyl)-1H-pyrazole]
EC50: 1000 to 10000 nM

CCN(Cc1ccncc1)Cc1cc(-c2ccc(-c3cccc(S(C)(=O)=O)c3)s2)n(-c2ccccc2Cl)n1 [Example 485, N-{[1-(2-chlorophenyl)-5-{5-[3-(methylsulfonyl)phenyl]-2-thienyl}-1H-pyrazol-3-yl]methyl}-N-(pyridin-4-ylmethyl)ethanamine]
EC50: < 1000 nM
